Laboratory results published in the supplement of paper PMC10883282.
± gives the standard deviation of the averaged measurements.

Experiments:
Test in all cases: relative viability vs DMSO control (72 h) (fraction); higher = more viable cells
MES-SA = test system: MES-SA
Procedure, shortened: (§1)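 After seeding at densities set for 80–90% confluence in 384-well plates, sarcoma cell lines waited 24 h before 2.5 µl of serially diluted compound was added. Source plates held 10 mM down to 0.0002 mM. Plates were incubated 72 h at 37 °C with 5% CO2, with 0.1% DMSO vehicle and a 5 µM positive control, and relative viability was taken from ATPLite as percent growth averaged over up to triplicate wells, with 1 set as full and 0 as none.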

VA-ES-BJ = test system: VA-ES-BJ
Procedure, shortened: as §1

SK-ES-1 = test system: SK-ES-1
Procedure, shortened: as §1

A204 = test system: A204
Procedure, shortened: as §1

SW982 = test system: SW982
Procedure, shortened: as §1

CCN1C(=O)N(c2c(F)c(OC)cc(OC)c2F)Cc2cnc3[nH]c(CN4CCOCC4)cc3c21 [Pemigatinib]
relative viability
Settings | A204 | MES-SA | SK-ES-1 | SW982 | VA-ES-BJ
0.00017 µM | 1.04 ± 0.057 | 0.912 ± 0.032 | 0.969 ± 0.028 | 0.989 ± 0.025 | 1.02 ± 0.011
0.00051 µM | 1.02 ± 0.04 | 0.9387 ± 0.0089 | 0.963 ± 0.041 | 0.978 ± 0.045 | 1.03 ± 0.021
0.00152 µM | 0.98 ± 0.046 | 0.937 ± 0.017 | 0.989 ± 0.04 | 0.98 ± 0.026 | 1.023 ± 0.008
0.00457 µM | 0.991 ± 0.052 | 0.914 ± 0.042 | 0.965 ± 0.034 | 1 ± 0.015 | 1.011 ± 0.0039
0.01372 µM | 0.843 ± 0.081 | 0.91 ± 0.022 | 0.935 ± 0.021 | 0.985 ± 0.015 | 1.04 ± 0.037
0.04115 µM | 0.709 ± 0.029 | 0.826 ± 0.054 | 0.972 ± 0.043 | 0.979 ± 0.012 | 1.05 ± 0.022
0.1235 µM | 0.599 ± 0.032 | 0.732 ± 0.037 | 0.89 ± 0.054 | 0.992 ± 0.02 | 1.036 ± 0.0072
0.3704 µM | 0.565 ± 0.038 | 0.7701 ± 0.0064 | 0.816 ± 0.034 | 0.968 ± 0.071 | 1.04 ± 0.02
1.111 µM | 0.516 ± 0.025 | 0.641 ± 0.0089 | 0.599 ± 0.021 | 0.715 ± 0.027 | 0.956 ± 0.023
3.333 µM | 0.379 ± 0.012 | 0.397 ± 0.0085 | 0.354 ± 0.012 | 0.511 ± 0.016 | 0.775 ± 0.029
10 µM | 0.333 ± 0.0092 | 0.376 ± 0.008 | 0.2767 ± 0.0018 | 0.438 ± 0.041 | 0.702 ± 0.016

COc1cc(OC)c(/C=C/S(=O)(=O)Cc2ccc(OC)c(NCC(=O)O)c2)c(OC)c1 [Rigosertib]
relative viability
Settings | A204 | MES-SA | SK-ES-1 | SW982 | VA-ES-BJ
0.00017 µM | 1.08 ± 0.039 | 0.901 ± 0.04 | 1 ± 0.054 | 1.06 ± 0.017 | 1.05 ± 0.057
0.00051 µM | 1.06 ± 0.043 | 0.906 ± 0.026 | 1.02 ± 0.011 | 1.04 ± 0.038 | 1.03 ± 0.023
0.00152 µM | 1.08 ± 0.032 | 0.911 ± 0.047 | 0.98 ± 0.058 | 1.05 ± 0.035 | 1.02 ± 0.036
0.00457 µM | 1.0898 ± 0.001 | 0.91 ± 0.021 | 1.08 ± 0.015 | 1.07 ± 0.036 | 1.03 ± 0.041
0.01372 µM | 1.09 ± 0.054 | 0.918 ± 0.011 | 1.03 ± 0.052 | 1.07 ± 0.045 | 1.05 ± 0.032
0.04115 µM | 1.07 ± 0.025 | 0.932 ± 0.049 | 0.987 ± 0.028 | 1.06 ± 0.036 | 0.961 ± 0.065
0.1235 µM | 1.01 ± 0.035 | 0.607 ± 0.086 | 0.252 ± 0.027 | 0.92 ± 0.026 | 0.772 ± 0.042
0.3704 µM | 0.672 ± 0.06 | 0.271 ± 0.0088 | 0.038 ± 0.0022 | 0.52 ± 0.027 | 0.53 ± 0.028
1.111 µM | 0.398 ± 0.0089 | 0.172 ± 0.0032 | 0.0202 ± 0.0012 | 0.26 ± 0.018 | 0.43 ± 0.015
3.333 µM | 0.319 ± 0.0033 | 0.13 ± 0.0022 | 0.0195 ± 0.00057 | 0.256 ± 0.012 | 0.403 ± 0.018
10 µM | 0.248 ± 0.01 | 0.13 ± 0.002 | 0.0239 ± 0.0018 | 0.273 ± 0.014 | 0.2992 ± 0.0011

COCCNc1cc(NC(=O)N2CCCc3cc(CN4CCN(C)CC4=O)c(C=O)nc32)ncc1C#N [Roblitinib]
relative viability
Settings | A204 | MES-SA | SK-ES-1 | SW982 | VA-ES-BJ
0.00017 µM | 1.05 ± 0.011 | 0.912 ± 0.035 | 0.964 ± 0.035 | 1.013 ± 0.0057 | 1.03 ± 0.029
0.00051 µM | 1.09 ± 0.059 | 0.892 ± 0.015 | 0.979 ± 0.019 | 0.995 ± 0.019 | 1.01 ± 0.026
0.00152 µM | 1.03 ± 0.044 | 0.878 ± 0.04 | 0.986 ± 0.023 | 0.991 ± 0.02 | 1 ± 0.02
0.00457 µM | 1.08 ± 0.018 | 0.885 ± 0.056 | 0.974 ± 0.022 | 1.03 ± 0.04 | 1.02 ± 0.017
0.01372 µM | 1.06 ± 0.027 | 0.883 ± 0.017 | 1.03 ± 0.032 | 0.992 ± 0.016 | 1.02 ± 0.015
0.04115 µM | 1.07 ± 0.056 | 0.884 ± 0.024 | 0.973 ± 0.032 | 1.03 ± 0.051 | 1.03 ± 0.025
0.1235 µM | 1.04 ± 0.057 | 0.879 ± 0.039 | 1.02 ± 0.047 | 0.992 ± 0.018 | 1.04 ± 0.011
0.3704 µM | 1.02 ± 0.045 | 0.889 ± 0.055 | 0.985 ± 0.026 | 1.03 ± 0.04 | 1.03 ± 0.043
1.111 µM | 1.03 ± 0.061 | 0.882 ± 0.034 | 0.92 ± 0.015 | 1.03 ± 0.023 | 1.04 ± 0.026
3.333 µM | 0.922 ± 0.05 | 0.839 ± 0.069 | 0.916 ± 0.019 | 1.01 ± 0.065 | 0.999 ± 0.072
10 µM | 0.812 ± 0.014 | 0.79 ± 0.021 | 0.74 ± 0.018 | 0.9846 ± 0.0093 | 0.968 ± 0.073

Cc1cc2cc(Oc3ccnc(Nc4cccc(CS(=O)(=O)NCCN(C)C)c4)n3)ccc2[nH]1 [Sulfatinib]
relative viability
Settings | A204 | MES-SA | SK-ES-1 | SW982 | VA-ES-BJ
0.00017 µM | 1.09 ± 0.063 | 0.911 ± 0.014 | 1.03 ± 0.072 | 1.04 ± 0.038 | 1.03 ± 0.034
0.00051 µM | 1.08 ± 0.022 | 0.92 ± 0.031 | 1.03 ± 0.082 | 1.04 ± 0.03 | 1.03 ± 0.04
0.00152 µM | 1.08 ± 0.049 | 0.913 ± 0.02 | 1.01 ± 0.032 | 1.05 ± 0.026 | 1.02 ± 0.052
0.00457 µM | 1.05 ± 0.091 | 0.906 ± 0.021 | 1.03 ± 0.062 | 1.06 ± 0.043 | 1.03 ± 0.057
0.01372 µM | 1.07 ± 0.049 | 0.925 ± 0.036 | 1.03 ± 0.044 | 1.04 ± 0.017 | 1.02 ± 0.065
0.04115 µM | 1.02 ± 0.075 | 0.894 ± 0.015 | 1.05 ± 0.03 | 1.03 ± 0.012 | 1.02 ± 0.065
0.1235 µM | 1.01 ± 0.03 | 0.9221 ± 0.0037 | 1.03 ± 0.071 | 1.06 ± 0.049 | 1 ± 0.093
0.3704 µM | 0.878 ± 0.02 | 0.9312 ± 0.0049 | 1.03 ± 0.017 | 1.02 ± 0.059 | 1.04 ± 0.087
1.111 µM | 0.536 ± 0.04 | 0.969 ± 0.013 | 1 ± 0.039 | 0.971 ± 0.025 | 1.08 ± 0.039
3.333 µM | 0.283 ± 0.031 | 0.791 ± 0.056 | 0.859 ± 0.057 | 0.719 ± 0.018 | 1.04 ± 0.053
10 µM | 0.136 ± 0.016 | 0.299 ± 0.026 | 0.455 ± 0.021 | 0.226 ± 0.0099 | 0.486 ± 0.0055

CCN(CC)CCNC(=O)c1c(C)[nH]c(/C=C2\C(=O)Nc3ccc(F)cc32)c1C [Sunitinib]
relative viability
Settings | A204 | MES-SA | SK-ES-1 | SW982 | VA-ES-BJ
0.00017 µM | 1.06 ± 0.052 | 0.911 ± 0.02 | 0.997 ± 0.022 | 1.06 ± 0.054 | 1.04 ± 0.021
0.00051 µM | 1.03 ± 0.073 | 0.927 ± 0.056 | 0.996 ± 0.05 | 1.07 ± 0.047 | 1.03 ± 0.011
0.00152 µM | 1.01 ± 0.043 | 0.95 ± 0.032 | 1.08 ± 0.037 | 1.07 ± 0.062 | 1.04 ± 0.026
0.00457 µM | 0.96 ± 0.035 | 0.917 ± 0.046 | 1.04 ± 0.024 | 1.05 ± 0.027 | 1.04 ± 0.018
0.01372 µM | 0.795 ± 0.026 | 0.929 ± 0.011 | 1.02 ± 0.021 | 1.05 ± 0.063 | 1.05 ± 0.023
0.04115 µM | 0.516 ± 0.043 | 0.905 ± 0.018 | 0.97 ± 0.014 | 1.07 ± 0.021 | 1.045 ± 0.0085
0.1235 µM | 0.425 ± 0.046 | 0.917 ± 0.036 | 0.931 ± 0.019 | 1.02 ± 0.047 | 1.014 ± 0.01
0.3704 µM | 0.363 ± 0.031 | 0.83 ± 0.05 | 0.578 ± 0.03 | 0.716 ± 0.0084 | 0.962 ± 0.039
1.111 µM | 0.318 ± 0.017 | 0.578 ± 0.023 | 0.215 ± 0.0073 | 0.413 ± 0.0048 | 0.745 ± 0.021
3.333 µM | 0.206 ± 0.01 | 0.305 ± 0.024 | 0.018 ± 0.0024 | 0.0113 ± 0.00078 | 0.597 ± 0.045
10 µM | 0.00297 ± 0.0012 | -0.00247 ± 0.0005 | 0.0034 ± 0.00035 | 0.00423 ± 0.00012 | -0.00367 ± 0.0023

Cn1ncnc1[C@H]1c2n[nH]c(=O)c3cc(F)cc(c23)N[C@@H]1c1ccc(F)cc1 [Talazoparib]
relative viability
Settings | A204 | MES-SA | SK-ES-1 | SW982 | VA-ES-BJ
0.00017 µM | 0.9664 ± 0.0027 | 0.972 ± 0.026 | 0.961 ± 0.05 | 0.911 ± 0.025 | 1.01 ± 0.051
0.00051 µM | 0.987 ± 0.035 | 0.975 ± 0.019 | 0.9 ± 0.02 | 0.906 ± 0.061 | 1.01 ± 0.018
0.00152 µM | 0.963 ± 0.04 | 0.945 ± 0.028 | 0.825 ± 0.025 | 0.904 ± 0.053 | 1.01 ± 0.057
0.00457 µM | 0.932 ± 0.031 | 0.901 ± 0.032 | 0.614 ± 0.021 | 0.862 ± 0.069 | 0.955 ± 0.037
0.01372 µM | 0.906 ± 0.013 | 0.768 ± 0.015 | 0.33 ± 0.018 | 0.785 ± 0.035 | 0.926 ± 0.036
0.04115 µM | 0.846 ± 0.069 | 0.678 ± 0.012 | 0.173 ± 0.0092 | 0.729 ± 0.038 | 0.849 ± 0.045
0.1235 µM | 0.715 ± 0.017 | 0.555 ± 0.013 | 0.109 ± 0.0089 | 0.615 ± 0.051 | 0.738 ± 0.056
0.3704 µM | 0.674 ± 0.033 | 0.478 ± 0.0071 | 0.0754 ± 0.0047 | 0.602 ± 0.0075 | 0.601 ± 0.054
1.111 µM | 0.576 ± 0.086 | 0.392 ± 0.014 | 0.0494 ± 0.0078 | 0.499 ± 0.073 | 0.406 ± 0.023
3.333 µM | 0.519 ± 0.021 | 0.351 ± 0.016 | 0.0309 ± 0.0019 | 0.409 ± 0.021 | 0.225 ± 0.0094
10 µM | 0.399 ± 0.011 | 0.314 ± 0.0053 | 0.0277 ± 0.0025 | 0.361 ± 0.026 | 0.163 ± 0.004
